The target in test [1] is T1, PVY CP (Potato virus Y, UniProt P18247).
T1 construct: 6xHis tag (within the N-terminal pET-32a(+) fusion leader; the Trx and S-tag parts are inferred from the vector and the ~50 kDa band) (N, cleaved yes); made in house; host or cells: Escherichia coli BL21 (DE3) pLysS
As to the kind of experiment: biochemical. In kind it is binding.

Test [2] deals with PVY-GFP. Description: Systemic infection of PVY-GFP in N. benthamiana (GFP fluorescence, RT-qPCR). In kind it is in vivo, potato virus Y. The settings on record: 500 μg/mL, seven dpi. Here is the method: To investigate the effect of compound D13 on PVY system infection, we inoculated Nicotiana benthamiana (N. benthamiana) leaves with Agrobacterium carrying the wild-type PVY-GFP. After 24 h, the infiltrated leaves were treated with dimethyl sulfoxide (DMSO) as the negative control group and 500 μg/mL D13 as the treatment group. […] To further confirm reproducibility, an additional independent biological replicate (Figure S4) was uploaded, and the observed trend is consistent with the primary dataset.
Wild-type or mutant viral plasmids were introduced into agrobacterium tumefaciens strain GV3101. Bacterial cultures were grown overnight at 28°C with shaking at 220 rpm, harvested by centrifugation at 8 minutes when OD600 reached 0.6–0.8, and the supernatant was discarded. […] At 7 dpi, GFP fluorescence in leaves was visualized and photographed under 365 nm excitation using a LUYOR handheld UV lamp (LUYOR-3415RG, Luyor Instrument, Shanghai, China). […]
The samples of N. benthamiana infected with Agrobacterium were taken out from the -80°C freezer, small steel beads were added, and they were ground into fine powder with liquid nitrogen to ensure that the cells were completely broken and the nucleic acid components in the cells were released. […] The primers used is recorded in Supporting Information.

Test [3] deals with PVY. As to the kind of experiment: Anti-PVY curative activity, half-leaf method. The conditions noted are these: Potato virus Y, in Chenopodium amaranticolor, 120 h, read-out: Curative effect (%).
Description: (§1) Owing to its non-host resistance to PVY, Chenopodium amaranticolor develops a hypersensitive response (HR) within 48–72 hours post-inoculation, producing sharply delimited chlorotic or necrotic local lesions on the inoculated leaves. The number of lesions correlates linearly and positively with virus titre, thereby serving as a quantitative indicator of viral virulence and of the inactivating efficacy of test compounds. The PVY viral extract was rubbed onto the surface of Nicotiana tabacum K326 leaves. After the characteristic symptoms of leaf wrinkling and inward curling appeared, the leaves were harvested and stored at -80°C, then purified according to previously reported methods.[50]^,[51]^,[52] Host leaves were ground to a fine powder in liquid nitrogen, followed by homogenization on ice in 0.5 M phosphate buffer. An equal volume of chloroform:n-butanol (1:1, v/v) corresponding to 10% of the total buffer volume was added, and the mixture was further homogenized on ice. After centrifugation at 10,000g for 20 minutes (4°C), the supernatant was collected as the crude PVY extract. Using 4–5-leaf-stage Chenopodium amaranticolor maintained under optimal growth conditions, a bioassay was conducted with two plants per treatment to systematically evaluate the curative, protective, and inactivating efficacy of the target compound against PVY.[53] […] Each compound was evaluated in three replicates, and the average value was calculated.
Chenopodium amaranticolor was selected as the dead spot host. Excess leaves were first trimmed off, and a uniform layer of carborundum was applied to the leaf surface. The leaves were then inoculated by rubbing with a 1200-fold diluted virus solution. After more than an hour, the carborundum on the leaf surface was washed off with running water, and a 500 μg/mL drug solution was prepared. […] The treated plants were cultivated in a greenhouse for observation, and the number of dead spots on the leaves was counted after approximately 5 days.
In test [4] the target is T2, PVY CP^P154A (Potato virus Y, UniProt P18247, P2950A).
T2 construct: 6xHis tag (within the N-terminal pET-32a(+) fusion leader; the Trx and S-tag parts are inferred from the vector and the ~50 kDa band) (N, cleaved yes); made in house; host or cells: Escherichia coli BL21 (DE3) pLysS
T2 sequence (P18247 2797-3063 P2950A): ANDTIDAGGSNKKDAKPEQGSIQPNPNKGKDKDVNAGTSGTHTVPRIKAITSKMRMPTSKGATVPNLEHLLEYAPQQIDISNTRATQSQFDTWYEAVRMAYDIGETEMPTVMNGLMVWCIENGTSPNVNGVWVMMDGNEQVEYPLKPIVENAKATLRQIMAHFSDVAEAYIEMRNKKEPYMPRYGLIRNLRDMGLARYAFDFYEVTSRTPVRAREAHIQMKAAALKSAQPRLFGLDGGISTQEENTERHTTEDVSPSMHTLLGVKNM
Description: MST binding to mutant PVY CP^P154A.

The test system of test [5] is PVY. Description: Anti-PVY protective activity, half-leaf method. The settings on record: Potato virus Y, in Chenopodium amaranticolor, 120 h, read-out: Protective effect (%).
Description: as §1
In contrast to the antiviral therapeutic activity, the leaves were first treated with the drug solution. A 500 μg/mL drug solution was applied to the right side of the leaves, with the left side serving as a control and treated with a 1% Tween 80 solution. After the leaves had dried under natural conditions, they were placed in a greenhouse for 24 hours before inoculation by rubbing with carborundum, following the same procedures as those for curative activity. After treatment, the plants were maintained in a greenhouse, and the number of local lesions on the inoculated leaves was recorded approximately 5 days.
Test [6] deals with PVY. Description: Anti-PVY inactivating activity, half-leaf method. The conditions noted are these: for pest or weed control at 500 µg/mL / EC50: Potato virus Y, in Chenopodium amaranticolor; for pest or weed control at 500 µg/mL: 120 h, read-out: Inactivating effect (%), 500 μg/mL; for EC50: read-out: Inactivating effect EC50.
Description: as §1
Two different dilutions of the virus solution (600-fold and 1200-fold) were prepared, along with a 1000 μg/mL drug solution. The drug solution was mixed with the 600-fold diluted virus solution on ice and incubated for 30 minutes. During the incubation period, the left side of the leaves was treated with a 1200-fold diluted virus solution. After the incubation was completed, the mixed system of drug and virus is inoculated on the right side of the leaf. After waiting for the infection to be completed, the carborundum on the leaf surface was washed off with running water, and the plants were then cultivated in a greenhouse. The number of dead spots on the leaves was counted after approximately 5 days.
Setting [7] is: host Chenopodium amaranticolor, average of three replicates.

Values after ≈ are worked out from the molar mass of the structure shown.

T1 sequence (P18247 2797-3063): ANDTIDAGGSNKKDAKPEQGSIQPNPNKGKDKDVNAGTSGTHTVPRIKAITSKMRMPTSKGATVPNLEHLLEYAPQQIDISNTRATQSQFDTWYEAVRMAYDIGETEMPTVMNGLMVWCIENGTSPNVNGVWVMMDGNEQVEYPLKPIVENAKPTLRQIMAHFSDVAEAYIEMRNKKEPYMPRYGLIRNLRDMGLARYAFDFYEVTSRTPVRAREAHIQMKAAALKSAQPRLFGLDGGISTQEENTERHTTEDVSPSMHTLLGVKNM

In the case of `COc1ccc(/C=C2\Oc3cc(OCC(=O)NS(=O)(=O)c4ccc(Br)cc4)ccc3C2=O)cc1` [D13, (Z)-N-((4-bromophenyl)sulfonyl)-2-((2-(4-methoxybenzylidene)-3-oxo-2,3-dihydrobenzofuran-6-yl)oxy)acetamide], the Kd (commonly a measure of binding affinity in units of concentration) in test [1] is 16 µM; in test [4], 284 µM. Besides, the “accumulation level of PVY RNA in systemic leaves vs DMSO control (100%)” value in test [2] (RT-qPCR) stood at 39.8%. In addition, the “green fluorescence in stems and young top leaves” value in test [2] (UV illumination) is given as “almost unobservable”. Also, the pest or weed control at 500 µg/mL was 53.2 ± 1.6% in test [3], 47.7 ± 1.4% in test [5] and 60 to 80% in test [6] (setting [7]). For the same molecule, the EC50 (commonly the concentration giving half of the maximal effect) in test [6] was found to be 79.5 ± 3.3 µg/mL (≈ 146 µM).
Turning to `NC(=O)c1ncn([C@@H]2O[C@H](CO)[C@@H](O)[C@H]2O)n1` [RBV, ribavirin, reference compound], the Kd in test [1] came to 50.5 µM; in test [4], 210 ± 59.3 µM. In addition, the pest or weed control at 500 µg/mL in test [3] was found to be 41.9 ± 2.7%; in test [5] it was 44.2 ± 3.1%; in test [6] (setting [7]) it was 59.3%. In addition, the “Inactivating effect (%)” value in test [6] (500 μg/mL, host Chenopodium amaranticolor, average of three replicates) is 59.3 ± 3.8%. The EC50 in test [6] turned out to be 213 ± 15.4 µg/mL (≈ 873 µM).

Values taken from publication PMC12663734, “Sulfonamine-containing aurone derivatives act as inhibitors of intercellular movement of potato virus Y” (iScience, 2025).
